Results as given in the supplement of paper PMC10307832.

How the values were obtained:
Assay in all cases: relative viability (nuclei count vs DMSO), 5 days (fraction); higher = more cells survive
[1] = compound: Nc1nc2[nH]cc(CCc3ccc(C(=O)N[C@@H](CCC(=O)O)C(=O)O)cc3)c2c(=O)[nH]1 [Pemetrexed] + Cc1cc(Nc2cc(N3CCN(C)CC3)nc(Sc3ccc(NC(=O)C4CC4)cc3)n2)n[nH]1 [Tozasertib] (partner 0.1 µM)
Outline: (§1)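 Relative viability was taken as the ratio of nuclei in treated wells to nuclei in vehicle wells. Lung cancer cell lines in 1536-well plates received compounds by pin tool one day after seeding, either one drug alone or a fixed anchor-drug dose plus five library-drug doses (not always all listed) in √10 steps. Nuclei were counted on 4× images after 5 days of treatment, and values are medians of duplicate plates.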

[2] = compound: CC[C@H](Nc1ncnc2[nH]cnc12)c1nc2cccc(F)c2c(=O)n1-c1ccccc1 [Idelalisib] + Cc1nc(Nc2ncc(C(=O)Nc3c(C)cccc3Cl)s2)cc(N2CCN(CCO)CC2)n1 [Dasatinib] (partner 0.075 µM)
Outline: as §1

[3] = compound: CC[C@H](Nc1ncnc2[nH]cnc12)c1nc2cccc(F)c2c(=O)n1-c1ccccc1 [Idelalisib] + CS(=O)(=O)CCNCc1ccc(-c2ccc3ncnc(Nc4ccc(OCc5cccc(F)c5)c(Cl)c4)c3c2)o1 [Lapatinib] (partner 2 µM)
Outline: as §1

[4] = compound: Nc1nc2[nH]cc(CCc3ccc(C(=O)N[C@@H](CCC(=O)O)C(=O)O)cc3)c2c(=O)[nH]1 [Pemetrexed] + CCNC(=O)c1noc(-c2cc(C(C)C)c(O)cc2O)c1-c1ccc(CN2CCOCC2)cc1 [Luminespib] (partner 0.01 µM)
Outline: as §1

## UMC-11
[1]; first compound 0.002 µM
  relative viability: 0.196
[1]; first compound 0.006325 µM
  relative viability: 0.217
[1]; first compound 0.02 µM
  relative viability: 0.199
[1]; first compound 0.06325 µM
  relative viability: 0.202
[1]; first compound 0.2 µM
  relative viability: 0.208
[2]; first compound 0.04 µM
  relative viability: 0.349
[2]; first compound 0.1265 µM
  relative viability: 0.492
[2]; first compound 0.4 µM
  relative viability: 0.391
[2]; first compound 1.265 µM
  relative viability: 0.564
[2]; first compound 4 µM
  relative viability: 0.474
[3]; first compound 0.04 µM
  relative viability: 1
[3]; first compound 0.1265 µM
  relative viability: 1.02
[3]; first compound 0.4 µM
  relative viability: 0.985
[3]; first compound 1.265 µM
  relative viability: 1.14
[3]; first compound 4 µM
  relative viability: 0.976
[4]; first compound 0.002 µM
  relative viability: 0.989
[4]; first compound 0.006325 µM
  relative viability: 0.972
[4]; first compound 0.02 µM
  relative viability: 1.03
[4]; first compound 0.06325 µM
  relative viability: 1.09
[4]; first compound 0.2 µM
  relative viability: 0.923
